In US8148070B2, “Genetic polymorphisms associated with coronary events and drug response, methods of detection and uses thereof” (Celera Corporation, priority 2007, dated 2012):

Legend:
Format in all cases: in vivo, human
PROVE-IT patients = experiment: PROVE-IT (PROVE IT-TIMI 22) genetic study: high-dose atorvastatin vs standard-dose pravastatin, death or major cardiovascular events by KIF6 719Arg carrier status
Procedure: Patients were followed for 18 to 36 months, with an average follow-up of 24 months.
Of the 1,724 patients who met the criteria listed above, 1344 (78.0%) were male. […] This study was approved by institutional review boards of the Brigham and Women's Hospital and all participating centers.
KIF6 genotypes were determined using allele—specific real-time PCR as previously described. Cox proportional hazard models (Wald tests) were used to assess the effect of atorvastatin-treatment on incident CHD in the KIF6 719Arg carriers and noncarriers. Continuous variables tested were age, baseline LDL-C, and baseline HDL-C levels. Categorical variables tested were smoking (current versus non-current), hypertension, and baseline diabetes. All reported p values are two-sided.

[1] = test system: elderly men and women (ages 70-82); experiment: PROSPER trial: pravastatin vs placebo, coronary events in elderly by KIF6 719Arg carrier status; details: for hazard ratio (coronary events, pravastatin vs placebo) / Hazard ratio: PROSPER; for hazard ratio (coronary events, pravastatin vs placebo): ages 70-82; for event (number of patients) / no event (number of patients): pravastatin arm of PROSPER; for Hazard ratio: pravastatin vs placebo, risk of CHD
Procedure: In this analysis, the KIF6 Trp719Arg polymorphism was analyzed in samples from the “Prospective Study of Pravastatin in the Elderly at Risk” (PROSPER) trial (PROSPER is described further in Shepherd et al., Lancet. 2002 Nov. 23; 360(9346):1623-30). PROSPER was both a secondary and primary trial of elderly men and women (ages 70-82). […] Since an interaction has been observed between KIF6 carrier status and prior vascular events, groups with and without prior vascular events were genotyped separately.
5752 patients were genotyped within the PROSPER trial, and Cox proportional hazards models were used to investigate (1) the risk for coronary events in 719Arg carriers compared with noncarriers in a placebo arm, and (2) the effect of statin therapy according to 719Arg carrier status in a pravastatin arm.
To assess the effect of pravastatin, risk estimates were used to compare the pravastatin arm with the placebo arm in subgroups defined by genotypes.

WOSCOPS patients = experiment: WOSCOPS nested case-control study: pravastatin vs placebo, primary CHD in subgroups defined by genotype; details: for Case (patients with coronary event): pravastatin arm; for risk reduction (coronary events) / OR, Effect of Pravastatin on MI and CHD: pravastatin vs placebo
Description: In order to identify genetic markers associated with CHD (particularly MI, including recurrent MI) or the effect of statin treatment on CHD, samples were genotyped in two clinical trials: the Cholesterol and Recurrent Events (CARE) study (a randomized multicentral double-blinded trial on secondary prevention of MI with pravastatin (Pravachol®); Sacks et al., Am. J. Cardiol. 68: 1436-1446 [1991]), and the West of Scotland Coronary Prevention Study (WOSCOPS) study (a randomized multicentral double-blinded trial on primary prevention of CHD with pravastatin (Pravachol®); Shepherd et al., N Eng J Med 333 (20), pp. 1301-7, Nov. 16, 1995; Packard et al., N Eng J Med 343 (16), pp. 1148-55, Oct. 19, 2000).
The designs of the original WOSCOPS cohort and the nested case-control study have been described (Shepherd et al., N Eng J Med 333 (20), pp. 1301-7, Nov. 16, 1995; Packard et al., N Eng J Med 343 (16), pp. 1148-55, Oct. 19, 2000). The objective of the WOSCOPS trial was to assess pravastatin efficacy at reducing risk of primary MI or coronary death among Scottish men with hypercholesterolemia (fasting LDL cholesterol>155 mg/dl). Participants in the WOSCOPS study were 45-64 years of age and followed for an average of 4.9 years for coronary events. The nested case-control study included as cases all WOSCOPS patients who experienced a coronary event (confirmed nonfatal MI, death from CHD, or a revascularization procedure; N=580). Controls were age- and smoking-matched to unaffected patients.
In analyzing the CARE patients, statistical analysis was performed with SAS version 9. Cox proportional hazard models (Wald tests) were used in CARE to assess the association of genotype with both the risk of incident MI in the placebo arm and the effect of pravastatin on MI compared to placebo in subgroups defined by genotypes. In analyzing the WOSCOPS patients, a conditional logistic regression model was used in WOSCOPS given that the controls had been previously matched to the cases. The column entitled “On-trial MI” lists the number of patients who suffered a recurrent MI during the clinical trial period.
HR stands for Hazard Ratio, which is a concept similar to Odds Ratio (OR). The HR in event-free survival analysis is the effect of an explanatory variable on the hazard or risk of an event. For examples, it describes the likelihood of developing MI based on comparison of rate of coronary events between carriers of the certain allele and noncarriers; therefore, HR=1.5 would mean that carriers of the certain allele have 50% higher risk of coronary events during the study follow up than non-carriers. HR can also describe the effect of statin therapy on coronary events based on comparison of rate of coronary events between patient treated with statin and patient treated with placebo (or other statin) in subgroups defined by SNP genotype; therefore, HR=0.5 would mean that, for example, carriers of the certain allele, had 50% reduction of coronary events by statin therapy as compared to placebo. In Table 6, p interaction values were calculated. An interaction (or effect modification) is formed when a third variable modifies the relation between an exposure and outcome. […] Genotype and drug interaction is present when the effect of statins (incidence rate of disease in statin-treated group, as compared to placebo) differs in patients with different genotypes. The hCV3054799 risk allele predicted risk of MI in CARE and was associated with odds of CHD in WOSCOPS.

[2] = carrier (minor homozygote + heterozygote)

CC[C@H](C)C(=O)O[C@H]1C[C@H](O)C=C2C=C[C@H](C)[C@H](CC[C@@H](O)C[C@@H](O)CC(=O)O)[C@H]21 [Pravastatin, pravastatin]
On-trial CHD (PROVE-IT patients; ArgArg + ArgTrp, totals 509 (atorvastatin), 502 (pravastatin)): 123 Number of patients | On-trial CHD (PROVE-IT patients; TrpTrp, totals 359 (atorvastatin), 352 (pravastatin)): 80 Number of patients | hazard ratio (coronary events, pravastatin vs placebo) ([1]; 719Arg carriers with prior vascular disease): 0.67 | hazard ratio (coronary events, pravastatin vs placebo) ([1]; noncarriers with prior vascular disease): 0.92 | event (number of patients) [1, 2]: 103 | no event (number of patients) [1, 2]: 657 | event (number of patients) ([1]; rs20455 genotype AA): 80 | no event (number of patients) ([1]; rs20455 genotype AA): 456 | event (number of patients) ([1]; rs20455 genotype AG): 85 | no event (number of patients) ([1]; rs20455 genotype AG): 501 | event (number of patients) ([1]; rs20455 genotype GG): 18 | no event (number of patients) ([1]; rs20455 genotype GG): 156 | Hazard ratio ([1]; KIF6 719Arg carrier, Model 1 unadjusted): 0.67 | Hazard ratio ([1]; KIF6 719Arg carrier, Model 2 adjusted for age, sex and smoking status): 0.67 | Hazard ratio ([1]; KIF6 719Arg carrier, Model 3 adjusted for age, sex, smoking status, history of hypertension, LDL, HDL and history of diabetes): 0.67 | Hazard ratio ([1]; KIF6 rs20455 heterozygote, Model 1 unadjusted): 0.67 | Hazard ratio ([1]; KIF6 rs20455 heterozygote, Model 2 adjusted for age, sex and smoking status): 0.67 | Hazard ratio ([1]; KIF6 rs20455 heterozygote, Model 3 adjusted for age, sex, smoking status, history of hypertension, LDL, HDL and history of diabetes): 0.68 | Hazard ratio ([1]; KIF6 rs20455 major homozygote (noncarrier), Model 1 unadjusted): 0.93 | Hazard ratio ([1]; KIF6 rs20455 major homozygote (noncarrier), Model 2 adjusted for age, sex and smoking status): 0.92 | Hazard ratio ([1]; KIF6 rs20455 major homozygote (noncarrier), Model 3 adjusted for age, sex, smoking status, history of hypertension, LDL, HDL and history of diabetes): 0.92 | Hazard ratio ([1]; KIF6 rs20455 minor homozygote, Model 1 unadjusted): 0.65 | Hazard ratio ([1]; KIF6 rs20455 minor homozygote, Model 2 adjusted for age, sex and smoking status): 0.65 | Hazard ratio ([1]; KIF6 rs20455 minor homozygote, Model 3 adjusted for age, sex, smoking status, history of hypertension, LDL, HDL and history of diabetes): 0.63 | OR, Adjusted (CHD, pravastatin vs placebo) (WOSCOPS patients; AA (noncarriers), matched and adjusted): 0.91 | OR, Matched (CHD, pravastatin vs placebo) (WOSCOPS patients; AA (noncarriers), matched for age and smoking): 0.94 | Case (patients with coronary event) (WOSCOPS patients; AA, 213 controls): 81 number of patients | OR, Matched (CHD, pravastatin vs placebo) (WOSCOPS patients; GG + GA (719Arg carriers), cases and controls matched for age and smoking): 0.50 | OR, Adjusted (CHD, pravastatin vs placebo) (WOSCOPS patients; GG + GA (719Arg carriers), matched and adjusted for hypertension, diabetes, BMI, LDL-C, HDL-C): 0.50 | Case (patients with coronary event) (WOSCOPS patients; GG + GA, 330 controls): 108 number of patients | risk reduction (coronary events) (WOSCOPS patients; carriers of the KIF6 719Arg allele, significant): 50% | risk reduction (coronary events) (WOSCOPS patients; noncarriers, insignificant): 9% | OR, Effect of Pravastatin on MI and CHD (WOSCOPS patients; hCV3054808 genotype AA): 0.55 | OR, Effect of Pravastatin on MI and CHD (WOSCOPS patients; hCV3054808 genotype AC): 0.52 | OR, Effect of Pravastatin on MI and CHD (WOSCOPS patients; hCV3054808 genotype CC): 0.89 | OR, Effect of Pravastatin on MI and CHD (WOSCOPS patients; hCV3054813 genotype CC): 0.64 | OR, Effect of Pravastatin on MI and CHD (WOSCOPS patients; hCV3054813 genotype CT): 0.51 | OR, Effect of Pravastatin on MI and CHD (WOSCOPS patients; hCV3054813 genotype TT): 0.95 | OR, Effect of Pravastatin on MI and CHD (WOSCOPS patients; hCV29992177 genotype AA): 0.71 | OR, Effect of Pravastatin on MI and CHD (WOSCOPS patients; hCV29992177 genotype GA): 0.54 | OR, Effect of Pravastatin on MI and CHD (WOSCOPS patients; hCV29992177 genotype GG): 2.55 | OR, Effect of Pravastatin on MI and CHD (WOSCOPS patients; hCV30225864 genotype CC): 0.67 | OR, Effect of Pravastatin on MI and CHD (WOSCOPS patients; hCV30225864 genotype CT): 0.54 | OR, Effect of Pravastatin on MI and CHD (WOSCOPS patients; hCV30225864 genotype TT): 0.78
